Experimental data: patent US12491190B2, “Bile acid derivative, composition and application thereof” (SHENZHEN YUNHE PHARMACEUTICAL TECHNOLOGY PARTNERSHIP …, priority 2019, dated 2025)

Key:
[1] = test system: NCI-H716 cells; assay: GLP-1 release into culture medium of NCI-H716 cells; type: cell-based; conditions: 50 μM, FIG. 5
Description: NCI-H716 cells were cultured and treated with 50 μM hyocholic acid and hyocholic acid derivatives, and a reported TGR5 agonist INT-777, and the levels of GLP-1 in the cell culture medium were measured.

[2] = test system: NCI-H716 and STC-1 cells; assay: GLP-1 expression in enteroendocrine cell lines after 48 h bile acid treatment; type: cell-based; conditions: 50 μM, through the action of TGR5 and FXR, FIG. 6
Description: NCI-H716 and STC-1 cells were treated with 50 μM hyocholic acid, hyodeoxycholic acid, taurohyodeoxycholic acid, glycohyodeoxycholic acid, taurohyocholic acid, glycohyocholic acid and 19 kinds of other bile acids for 48 hours. […] (a) GLP-1 transcription was measured using real-time PCR, see FIG. 6A. (b) GLP-1 secretion was measured using ELISA, see FIG. 6B. (c) NCI-H716 and STC-1 and TGR5 knockdown cells thereof were treated with 6 kinds of hyocholic acids for 24 h and intracellular GLP-1, p-CREB and total CREB were measured using western blotting. (d) FXR protein concentration in nuclear and cytoplasmic fractions ofNCI-H716 cells after 24 h treatment with 50 μM chenodeoxycholic acid or 5-cholic acid in the presence and absence of hyocholic acid. See FIG. 6E. * P<0.05, compared with the control.

[3] = test system: fat-induced obesity mouse model; assay: High-fat diet induced obesity mouse model, triglyceride after 8 weeks of gavage; type: in vivo, mice; conditions: for triglyceride levels versus simple high-fat diet group: 50 mg/kg/day by gavage with high-fat diet for 8 weeks; for liver triglyceride / serum triglyceride: after 8 weeks of intervention; for liver triglyceride: FIG. 2; for serum triglyceride: FIG. 3
Description: In the fat-induced obesity mouse model, hyocholic acid and hyodeoxycholic acid were administered by gavage at a dose of 50 mg/kg/day while feeding high-fat diet (HFD) for 8 weeks. […] The increase of hyocholic acid and hyodeoxycholic acid in mice can effectively improve the dyslipidemia in mice caused by high fat.

## CC[C@H]1[C@@H](O)[C@@H]2[C@H](C[C@H](O)[C@]3(C)[C@@H]([C@H](C)C[C@H](C)C(=O)O)CC[C@@H]23)[C@@]2(C)CC[C@@H](O)C[C@@H]12 [INT-777]
[1]
  release of GLP-1 (level in cell culture medium): effectively promote the release of GLP-1

## C[C@H](C[C@H](C)C(=O)O)[C@H]1CCC2C3C(CC[C@@]21C)[C@@]1(C)CC[C@@H](O)CC1[C@@H](O)[C@H]3O (stereo partly drawn) [ZN-1-102-1, (S)-23-methyl hyocholic acid]
[1]
  release of GLP-1 (level in cell culture medium): superior to hyocholic acid and the existing TGR5 agonist INT-777

## C[C@H](CCC(=O)NCC(=O)O)[C@H]1CC[C@H]2[C@@H]3[C@H](O)[C@H](O)[C@@H]4C[C@H](O)CC[C@]4(C)[C@H]3CC[C@]12C [glycohyocholic acid]
[2]
  upregulating GLP-1 protein expression in enteroendocrine cell lines: more effective than other bile acids

## CC(CCC(=O)NCC(=O)O)C1CCC2C3CC(O)C4CC(O)CCC4(C)C3CCC12C (stereo not drawn) [glycohyodeoxycholic acid]
[2]
  upregulating GLP-1 protein expression in enteroendocrine cell lines: more effective than other bile acids

## C[C@H](CCC(=O)O)[C@H]1CC[C@H]2[C@@H]3[C@H](O)[C@H](O)[C@@H]4C[C@H](O)CC[C@]4(C)[C@H]3CC[C@]12C [hyocholic acid]
[1]
  release of GLP-1 (level in cell culture medium): effectively promote the release of GLP-1
[2]
  upregulating GLP-1 protein expression in enteroendocrine cell lines: more effective than other bile acids
[3]
  triglyceride levels versus simple high-fat diet group: significantly lower
  liver triglyceride: significant decrease
  serum triglyceride: significant decrease

## C[C@H](CCC(=O)O)[C@H]1CC[C@H]2[C@@H]3C[C@H](O)[C@@H]4C[C@H](O)CC[C@]4(C)[C@H]3CC[C@]12C [hyodeoxycholic acid]
[2]
  upregulating GLP-1 protein expression in enteroendocrine cell lines: more effective than other bile acids
[3]
  triglyceride levels versus simple high-fat diet group: significantly lower
  liver triglyceride: significant decrease
  serum triglyceride: significant decrease

## C[C@H](CCC(=O)NCCS(=O)(=O)O)[C@H]1CC[C@H]2[C@@H]3[C@H](O)[C@H](O)[C@@H]4C[C@H](O)CC[C@]4(C)[C@H]3CC[C@]12C.[Na] [taurohyocholic acid]
[2]
  upregulating GLP-1 protein expression in enteroendocrine cell lines: more effective than other bile acids

## C[C@H](CCC(=O)NCCS(=O)(=O)[O-])[C@H]1CC[C@H]2[C@@H]3C[C@H](O)[C@@H]4C[C@H](O)CC[C@]4(C)[C@H]3CC[C@]12C.[Na+] [taurohyodeoxycholic acid]
[2]
  upregulating GLP-1 protein expression in enteroendocrine cell lines: more effective than other bile acids
